Non-standard residues stand in square brackets, D forms with d. Residues, ends and D or L forms follow the SMILES beside them. *: point of attachment. Phe(4-(2-MeO-Ph)) = COc1ccccc1-c1ccc(C[C@H](N)C(=O)O)cc1; Cyclohexanoyl(1S,3S-3-NH2) = N[C@H]1CCC[C@H](C(=O)*)C1; Phe(4-guanidino) = N=C(N)Nc1ccc(C[C@H](N)C(=O)O)cc1; Trp(6-OMe) = COc1ccc2c(C[C@H](N)C(=O)O)c[nH]c2c1; Trp(5-OH) = N[C@@H](Cc1c[nH]c2ccc(O)cc12)C(=O)O; NHPh(4-CH2-morpholino) = c1cc(N*)ccc1CN1CCOCC1; NH(4-morpholinophenyl) = c1cc(N2CCOCC2)ccc1N*; Trp(7-aza) = N[C@@H](Cc1c[nH]c2ncccc12)C(=O)O; Bip = N[C@@H](Cc1ccc(-c2ccccc2)cc1)C(=O)O; 1Nal = N[C@@H](Cc1cccc2ccccc12)C(=O)O; 2Nal = N[C@@H](Cc1ccc2ccccc2c1)C(=O)O; d(hArg) = N=C(N)NCCCC[C@@H](N)C(=O)O; hArg = N=C(N)NCCCC[C@H](N)C(=O)O; X4 = COc1cc(CN*)cc(OC)c1; NHPh = c1ccc(N*)cc1; GABA = NCCCC(=O)O; X1 = Oc1ccccc1CN*; X2 = Oc1ccccc1N*; X3 = Oc1cccnc1N*
Assays:
[1] = target: T1, Ephrin type-A receptor 4 (Homo sapiens, UniProt P54764)
Description: Binding affinity to N-terminal His tagged EphA4 LBD (unknown origin) (29 to 209 residues) expressed in Rosetta-Gami B(DE3) cells assessed as change in entropy by isothermal titration calorimetry

[2] = target: T1, Ephrin type-A receptor 4; assay: Binding affinity to N-terminal His tagged EphA4 LBD (unknown origin) (29 to 209 residues) expressed in Rosetta-Gami B(DE3) cells by isothermal titration calorimetry
[3] = target: T1, Ephrin type-A receptor 4; remark: listed apart in the source
Description: Binding affinity to N-terminal His tagged EphA4 LBD (unknown origin) (29 to 209 residues) expressed in Rosetta-Gami B(DE3) cells assessed as change in enthalpy by isothermal titration calorimetry

[4] = Aqueous solubility of compound; type: physicochemical; settings: buffer
[5] = target: Ephrin type-A receptor 2 (Homo sapiens, UniProt P29317); assay: Binding affinity to N-terminal His tagged EphA2 LBD (27 to 200 residues) (unknown origin) expressed in Origami (DE3) cells by isothermal titration calorimetry
Ephrin type-A receptor 2, sequence (P29317 whole entry, the tested form may be a part): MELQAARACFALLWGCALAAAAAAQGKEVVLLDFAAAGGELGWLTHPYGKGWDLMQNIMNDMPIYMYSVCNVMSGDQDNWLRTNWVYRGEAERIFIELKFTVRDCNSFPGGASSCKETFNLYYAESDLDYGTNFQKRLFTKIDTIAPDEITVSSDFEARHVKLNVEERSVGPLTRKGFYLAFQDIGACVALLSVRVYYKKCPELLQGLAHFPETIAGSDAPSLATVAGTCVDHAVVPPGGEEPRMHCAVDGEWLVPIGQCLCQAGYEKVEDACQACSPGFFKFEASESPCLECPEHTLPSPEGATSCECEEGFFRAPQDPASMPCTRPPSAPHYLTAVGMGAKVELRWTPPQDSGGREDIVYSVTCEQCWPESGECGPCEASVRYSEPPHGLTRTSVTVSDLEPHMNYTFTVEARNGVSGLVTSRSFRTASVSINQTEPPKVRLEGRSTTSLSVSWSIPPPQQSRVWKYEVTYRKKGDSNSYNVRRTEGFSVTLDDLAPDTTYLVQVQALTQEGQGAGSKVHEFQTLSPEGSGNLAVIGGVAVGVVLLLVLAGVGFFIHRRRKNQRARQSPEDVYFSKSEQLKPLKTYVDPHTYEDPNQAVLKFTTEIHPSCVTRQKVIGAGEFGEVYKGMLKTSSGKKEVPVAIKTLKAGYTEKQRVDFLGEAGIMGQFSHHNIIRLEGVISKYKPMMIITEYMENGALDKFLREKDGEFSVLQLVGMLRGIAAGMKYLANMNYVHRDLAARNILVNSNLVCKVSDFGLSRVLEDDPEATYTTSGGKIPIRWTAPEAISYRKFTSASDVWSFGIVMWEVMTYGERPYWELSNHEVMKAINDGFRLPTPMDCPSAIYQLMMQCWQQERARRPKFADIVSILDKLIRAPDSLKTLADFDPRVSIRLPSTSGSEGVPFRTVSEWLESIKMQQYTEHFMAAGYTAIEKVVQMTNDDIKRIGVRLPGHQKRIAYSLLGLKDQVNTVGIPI

T1 sequence (P54764 whole entry, the tested form may be a part): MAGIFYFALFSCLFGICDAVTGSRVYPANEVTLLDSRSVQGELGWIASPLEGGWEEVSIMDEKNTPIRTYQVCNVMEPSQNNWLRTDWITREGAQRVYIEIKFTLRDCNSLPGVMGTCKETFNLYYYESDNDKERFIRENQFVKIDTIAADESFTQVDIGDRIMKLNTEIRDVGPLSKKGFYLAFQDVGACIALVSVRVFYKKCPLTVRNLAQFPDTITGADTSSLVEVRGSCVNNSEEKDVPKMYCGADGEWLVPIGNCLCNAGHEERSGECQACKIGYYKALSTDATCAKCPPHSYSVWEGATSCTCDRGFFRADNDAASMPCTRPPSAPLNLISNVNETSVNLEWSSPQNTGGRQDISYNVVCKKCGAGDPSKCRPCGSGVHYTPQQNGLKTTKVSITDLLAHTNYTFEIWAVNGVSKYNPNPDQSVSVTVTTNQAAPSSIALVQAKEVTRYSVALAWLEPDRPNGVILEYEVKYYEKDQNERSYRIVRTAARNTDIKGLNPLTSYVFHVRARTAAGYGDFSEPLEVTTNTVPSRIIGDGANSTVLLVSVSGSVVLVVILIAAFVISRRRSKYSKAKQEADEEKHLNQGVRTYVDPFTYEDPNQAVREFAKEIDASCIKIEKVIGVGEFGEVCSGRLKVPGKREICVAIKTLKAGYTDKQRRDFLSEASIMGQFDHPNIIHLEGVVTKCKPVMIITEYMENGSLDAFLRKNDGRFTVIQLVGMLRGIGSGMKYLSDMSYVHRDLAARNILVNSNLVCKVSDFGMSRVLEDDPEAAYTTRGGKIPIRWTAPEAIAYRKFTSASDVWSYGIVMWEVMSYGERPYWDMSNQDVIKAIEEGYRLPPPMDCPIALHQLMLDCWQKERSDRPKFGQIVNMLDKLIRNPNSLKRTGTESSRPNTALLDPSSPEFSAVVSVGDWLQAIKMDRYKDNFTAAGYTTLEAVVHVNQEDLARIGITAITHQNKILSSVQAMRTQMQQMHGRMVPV

SMILES	-TdeltaS [1] [kcal/mol]	Kd [2] [nM]	deltaH [3] [kcal/mol]	solubility [4] [mM]	Kd [5]
N=C(N)NCCCC[C@H](NC(=O)[C@H](Cc1ccc(-c2ccccc2)cc1)NC(=O)[C@H](Cc1c[nH]c2ccc(O)cc12)NC(=O)CCCN)C(=O)NCC(=O)NCc1ccccc1O (H-[GABA][Trp(5-OH)][Bip][hArg]G-X1)	3	258	-12		
C[C@H](N)C(=O)N[C@@H](Cc1c[nH]c2ccccc12)C(=O)N[C@@H](Cc1ccc(-c2ccccc2)cc1)C(=O)N[C@@H](CCCCNC(=N)N)C(N)=O (HELM PEPTIDE1{A.W.[O=C([C@H](Cc1ccc(-c2ccccc2)cc1)N[*:1])[*:2]].[N=C(N)NCCCC[C@H](N[*:1])C(=O)[*:2]].[am]}$$$$V2.0)	2.01	3020	-9.54		
N=C(N)NCCCC[C@H](NC(=O)[C@H](Cc1ccc2ccccc2c1)NC(=O)[C@H](Cc1c[nH]c2ccc(O)cc12)NC(=O)CCCN)C(N)=O (H-[GABA][Trp(5-OH)][2Nal][hArg]-NH2)	1.27	5250	-8.49		
COc1ccccc1-c1ccc(C[C@H](NC(=O)[C@H](Cc2c[nH]c3ccc(O)cc23)NC(=O)[C@H]2CCC[C@H](N)C2)C(=O)N[C@@H](CCCCNC(=N)N)C(=O)NCC(=O)Nc2ccc(N3CCOCC3)cc2)cc1 ({Cyclohexanoyl(1S,3S-3-NH2)}-[Trp(5-OH)][Phe(4-(2-MeO-Ph))][hArg]G-{NH(4-morpholinophenyl)})		106		> 50	Not Active
N=C(N)NCCC[C@H](NC(=O)[C@H](Cc1ccc(-c2ccccc2)cc1)NC(=O)[C@H](Cc1c[nH]c2ccc(O)cc12)NC(=O)CCCN)C(N)=O (H-[GABA][Trp(5-OH)][Bip]R-NH2)	2.35	459	-11		
COc1ccccc1-c1ccc(C[C@H](NC(=O)[C@H](Cc2c[nH]c3ccc(O)cc23)NC(=O)[C@H]2CCC[C@H](N)C2)C(=O)N[C@@H](CCCCNC(=N)N)C(=O)NCC(=O)Nc2ccc(CN3CCOCC3)cc2)cc1 ({Cyclohexanoyl(1S,3S-3-NH2)}-[Trp(5-OH)][Phe(4-(2-MeO-Ph))][hArg]G-{NHPh(4-CH2-morpholino)})		77		> 50	Not Active
Cc1ccccc1-c1ccc(C[C@H](NC(=O)[C@H](Cc2c[nH]c3ccc(O)cc23)NC(=O)CCCN)C(=O)N[C@@H](CCCCNC(=N)N)C(N)=O)cc1	3.29	362	-12.1		
N=C(N)Nc1ccc(C[C@H](NC(=O)[C@H](Cc2ccc(-c3ccccc3)cc2)NC(=O)[C@H](Cc2c[nH]c3ccccc23)NC(=O)CCCN)C(N)=O)cc1 (H-[GABA]W[Bip][Phe(4-guanidino)]-NH2)	1.33	1160	-9.43		
N=C(N)NCCCC[C@H](NC(=O)[C@H](Cc1ccc(-c2ccccc2)cc1)NC(=O)[C@H](Cc1c[nH]c2ccc(O)cc12)NC(=O)[C@@H]1CC[C@@H](N)C1)C(N)=O	1.46	740	-9.82		
N=C(N)NCCCC[C@H](NC(=O)[C@H](Cc1ccc(-c2ccccc2)cc1)NC(=O)[C@H](Cc1c[nH]c2ccccc12)NC(=O)CCCN)C(N)=O (H-[GABA]W[Bip][hArg]-NH2)	2.27	663	-10.7		
N=C(N)NCCCC[C@H](NC(=O)[C@H](Cc1ccc(-c2ccccc2)cc1)NC(=O)[C@H](Cc1c[nH]c2ccc(O)cc12)NC(=O)CCCN)C(=O)NCC(=O)Nc1ccccc1 (H-[GABA][Trp(5-OH)][Bip][hArg]G-NHPh)	2.87	132	-12.3		
N=C(N)NCCCC[C@H](NC(=O)[C@H](Cc1ccc(-c2ccccc2)cc1)NC(=O)[C@H](Cc1c[nH]c2ccc(O)cc12)NC(=O)CCCN)C(=O)NCC(=O)Nc1ncccc1O (H-[GABA][Trp(5-OH)][Bip][hArg]G-X3)	0.86	488	-9.48		
NCCCC[C@H](NC(=O)[C@H](Cc1ccc(-c2ccccc2)cc1)NC(=O)[C@H](Cc1c[nH]c2ccc(O)cc12)NC(=O)CCCN)C(N)=O (H-[GABA][Trp(5-OH)][Bip]K-NH2)	2.54	437	-11.2		
Cc1ccc(-c2ccc(C[C@H](NC(=O)[C@H](Cc3c[nH]c4ccc(O)cc34)NC(=O)CCCN)C(=O)N[C@@H](CCCCNC(=N)N)C(N)=O)cc2)cc1	1.77	708	-10.2		
N=C(N)NCCCC[C@H](NC(=O)[C@H](Cc1ccc(-c2ccccc2)cc1)NC(=O)[C@H](Cc1c[nH]c2ccc(O)cc12)NC(=O)CCCN)C(=O)NCC(=O)Nc1ccc(CN2CCOCC2)cc1 (H-[GABA][Trp(5-OH)][Bip][hArg]G-{NHPh(4-CH2-morpholino)})	1.05	106	-10.6		
N=C(N)NCCCC[C@H](NC(=O)[C@H](Cc1ccc(-c2ccccc2)cc1)NC(=O)[C@H](Cc1c[nH]c2ncccc12)NC(=O)CCCN)C(N)=O (H-[GABA][Trp(7-aza)][Bip][hArg]-NH2)	0.74	16300	-7.27		
N=C(N)NCCCC[C@H](NC(=O)[C@H](Cc1ccc(-c2ccc(Cl)cc2)cc1)NC(=O)[C@H](Cc1c[nH]c2ccc(O)cc12)NC(=O)CCCN)C(N)=O	2	749	-10.4		
COc1cc(CNC(=O)CNC(=O)[C@H](CCCCNC(=N)N)NC(=O)[C@H](Cc2ccc(-c3ccccc3)cc2)NC(=O)[C@H](Cc2c[nH]c3ccc(O)cc23)NC(=O)CCCN)cc(OC)c1 (H-[GABA][Trp(5-OH)][Bip][hArg]G-X4)	2.39	307	-11.3		
N=C(N)NCCCC[C@@H](NC(=O)[C@H](Cc1ccc(-c2ccccc2)cc1)NC(=O)[C@H](Cc1c[nH]c2ccccc12)NC(=O)CCCN)C(N)=O (H-[GABA]W[Bip][d(hArg)]-NH2)	0.3	270	-9.26		
N=C(N)NCCCC[C@H](NC(=O)[C@H](Cc1ccc(-c2ccccc2)cc1)NC(=O)[C@H](Cc1c[nH]c2ccc(O)cc12)NC(=O)[C@@H]1CCC[C@@H](N)C1)C(N)=O	1.32	1210	-9.39		
N=C(N)NCCCC[C@H](NC(=O)[C@H](Cc1ccc(-c2ccccc2)cc1)NC(=O)[C@H](Cc1c[nH]c2ccccc12)NC(=O)CCN)C(N)=O (HELM PEPTIDE1{[bAla].W.[O=C([C@H](Cc1ccc(-c2ccccc2)cc1)N[*:1])[*:2]].[N=C(N)NCCCC[C@H](N[*:1])C(=O)[*:2]].[am]}$$$$V2.0)	3.77	2130	-11.5		
N=C(N)NCCCC[C@H](NC(=O)[C@H](Cc1ccc(-c2ccccc2)cc1)NC(=O)[C@H](Cc1c[nH]c2ccc(O)cc12)NC(=O)[C@H]1CC[C@H](N)C1)C(N)=O	0.21	1120	-8.33		
N=C(N)NCCCC[C@H](NC(=O)[C@H](Cc1ccc(-c2ccccc2)cc1)NC(=O)[C@H](Cc1c[nH]c2ccc(O)cc12)NC(=O)[C@H]1CCC[C@H](N)C1)C(N)=O	-0.67	370	-8.1		
N=C(N)NCCCC[C@H](NC(=O)[C@H](Cc1ccc(-c2ccccc2)cc1)NC(=O)[C@H](Cc1c[nH]c2ccc(O)cc12)NC(=O)CCCN)C(=O)NCC(=O)Nc1ccc(N2CCOCC2)cc1 (H-[GABA][Trp(5-OH)][Bip][hArg]G-{NH(4-morpholinophenyl)})	1.63	94	-11.2		
COc1ccc2c(C[C@H](NC(=O)CCCN)C(=O)N[C@@H](Cc3ccc(-c4ccccc4)cc3)C(=O)N[C@@H](CCCCNC(=N)N)C(N)=O)c[nH]c2c1 (H-[GABA][Trp(6-OMe)][Bip][hArg]-NH2)	2.84	2460	-10.5		
N=C(N)NCCCC[C@H](NC(=O)[C@H](Cc1cccc2ccccc12)NC(=O)[C@H](Cc1c[nH]c2ccc(O)cc12)NC(=O)CCCN)C(N)=O (H-[GABA][Trp(5-OH)][1Nal][hArg]-NH2)	1.46		-8.22		
N=C(N)NCCCC[C@H](NC(=O)[C@H](Cc1ccc(-c2ccccc2)cc1)NC(=O)[C@H](Cc1c[nH]c2ccc(O)cc12)NC(=O)CCCN)C(=O)NCC(=O)Nc1ccccc1O (H-[GABA][Trp(5-OH)][Bip][hArg]G-X2)	2.88	191	-12		
N=C(N)NCCCC[C@H](NC(=O)[C@H](Cc1ccc(-c2ccccc2)cc1)NC(=O)[C@H](Cc1c[nH]c2ccc(O)cc12)NC(=O)[C@H]1CCC[C@H](N)C1)C(=O)NCC(=O)Nc1ccc(CN2CCOCC2)cc1 ({Cyclohexanoyl(1S,3S-3-NH2)}-[Trp(5-OH)][Bip][hArg]G-{NHPh(4-CH2-morpholino)})		144		> 50	Not Active
